Data as given in US20120004268A1, “INSECTICIDAL COMPOSITIONS COMPRISING CYCLIC CARBONYLAMIDINES” (BAYER CROPSCIENCE AG, priority 2010, published 2012).

Columns and labels:
Assay type in all cases: in vivo
[1] = system: Myzus persicae; assay: Foliar application Myzus persicae / bell peppers (spray test); conditions: spray on infested bell pepper plants, AMS and/or RME each 1000 ppm in spray liquor where named, 6 days
Description: Foliar Application Myzus persicae/Bell Peppers
(§1) To produce a suitable active compound preparation, 1 part by weight of active compound is mixed with the stated amounts of solvent and emulsifier, and the concentrate is diluted with emulsifier-containing water to the desired concentration. For application with ammonium salts and penetrants (rapeseed oil methyl ester 500 EW), these ingredients are each added to the spray liquor in a concentration of 1000 ppm.
Bell pepper plants (Capsicum annuum) heavily infested by the green peach aphid (Myzus persicae) are treated by spraying with the active compound preparation of the desired concentration. After 6 days, the kill in % is determined. 100% means that all aphids have been killed; 0% means that no aphids have been killed.

[2] = system: Aphis gossypii; assay: Foliar application Aphis gossypii / cotton (spray test); conditions: spray on infested cotton plants, 6 days
Description: Foliar Application Aphis gossypii/Cotton
as §1
Cotton plants (Gossypium hirsutum) heavily infested by the cotton aphid (Aphis gossypii) are treated by spraying with the active compound preparation of the desired concentration. After 6 days, the kill in % is determined 100% means that all aphids have been killed; 0% means that no aphids have been killed.

[3] = system: Bemisia tabaci; assay: Bemisia tabaci (BEMITA spray treatment) on cotton leaf discs; conditions: 0.8 ppm active compound; spray on cotton leaf discs infested by whitefly larvae; 7 days
Description: Bemisia tabaci (BEMITA Spray Treatment)
To produce a suitable active compound preparation, 1 part by weight of active compound is mixed with the stated amounts of solvents and emulsifier, and the concentrate is diluted with emulsifier-containing water to the desired concentration.
Discs of cotton leaves (Gossypium hirsutum) infested by whitefly (Bemisia tabaci) larvae are sprayed with an active compound preparation of the desired concentration.
After 7 days, the effects in % is determined 100% means that all whiteflies have been killed; 0% means that none of the whiteflies have been killed.

[4] = 0.8 ppm active compound, AMS and/or RME each 1000 ppm in spray liquor where named

| Structure (SMILES) | Kill in % after 6d ([1]; 0.8 ppm active compound) [%] | Kill in % after 6d [2, 4] [%] | Kill in % after 6d ([1]; 4 ppm active compound) [%] | Kill in % after 7d [3] [%] | Kill in % after 6d ([2]; 4 ppm active compound, RME 1000 ppm in spray liquor where named) [%] |
| --- | --- | --- | --- | --- | --- |
| CN(Cc1ccc(Cl)nc1)C1=NC(=O)OC1 [I-1, 4-[[(6-chloro-3-pyridinyl)methyl]methylamino]-2(5H)-oxazolone] | 0 | 35 | – | – | – |
| O=C1N=C(N(Cc2ccc(Cl)nc2)C2CC2)CO1 [I-6, 4-[[(6-chloro-3-pyridinyl)methyl]cyclopropylamino]-2(5H)-oxazolone] | – | 0 | 15 | 40 | 40 |
